“Also recorded” adds a separate entry of the source.
Experiments:
B16 melanoma heparanase [1] = experiment: Solid-phase assay for heparanase inhibitors (3H-HS-agarose beads); assay type: biochemical, mouse; conditions: B16-BL6 lysate of 10^6 cells, various concentrations, 37° C.
Method: The measurements were performed by incubating B16-BL6 melanoma heparanase. The measurements were performed by incubating B16-BL6 melanoma cell lysates equivalent to 10^6 cells with a suspension of ^3 H-HS-agarose beads prepared by partial N-desulfation and ^3 H-acetylation (approximately 20% suspension), and various concentrations of heparanase inhibitors at 37° C. for 24 hr with gentle mixing.
Source of Heparanase. Highly invasive mouse B16 melanoma (B16-BL6) cells were provided by Dr. I. J. Fidler, (M.D. Anderson Hospital, Houston, Tex.) and were cultured as previously described (Irimura et al., (1983a) and Irimura et al. (1984)). Cell extracts were prepared in 5 mM Tris-HCl buffer, pH 7.4, containing 0.25M sucrose, 50 μM calcium chloride, 10 μM phenylmethylsulfonylfluoride, and 0.2% Nonidet P-40 (Irimura et al., (1983). The melanoma extracts were stored frozen at -80° C. and used as crude heparanase.
Preparation of Solid-phase Substrates for Heparanase and Inhibitor Assays.
Solid-phase Assays for Heparanase and Heparanase Inhibitors. ^3 H-HS-agarose was suspended in Dulbecco's phosphate buffered saline (DPBS) at about 20% (v/v). The incubation conditions for the solid-phase assay were identical to those of the HPLC assay, except that 75 μl of the ^3 H-HS-agarose suspension was used instead of the HS so that the incubation mixture consisted of B16 melanoma extract, chemically modified heparins, 4×heparanase assay buffer, and ^3 H-HS-agarose suspension. After incubation, the reaction mixture was placed on ice, chilled 5% trichloroacetic acid (50 ul) added, the mixture incubated for 10 min, and centrifuged. Radioactivity in the supernatant and the pellet was determined separately after mixing with Hydrofluor.

[2] = tested on: vascular smooth muscle cells; conditions: cited from earlier work
B16-BL6 melanoma = experiment: Release of 35S-labeled substances from lung capillary endothelial extracellular matrix by melanoma cells; assay type: cell-based, mouse; conditions: for degradation of sulfated molecules of endothelial matrix by melanoma cells: 35S-labeled matrix, B16-BL6 cells, 37° C., 18 hours
Method: FIG. 6: Effects of chemically modified heparins on the release of ^35 S labeled substances from the extracellular matrix of mouse lung capillary endothelial cells in vitro. […] (See: Nakajima et al., Science 220:611-613, 1983, for the methods.)
Effects of chemically modified heparins on the release of ^35 S-labeled polysaccharides from the extra-cellular matrix of mouse lung endothelial cells were studied in vitro. The endothelial cells isolated from mouse lung capillary were grown in the presence of ^35 S-sulfate, and the extracellular matrix-like material was isolated on multiwell plastic tissue culture plates by hypotonic lysis of the cells. The matrices (1 cm diameter) were incubated with mouse B16-BL6 melanoma at 37° C. for 18 hours. The released radioactivity was counted.

B16-BL6 melanoma cells [3] = experiment: Experimental blood-borne lung colonization, melanoma cells preincubated with heparins; assay type: in vivo, C57BL/6 mice; conditions: for Number of colonies (median), Exp 2 / Number of colonies (median), Exp 1 / Number of colonies, Exp 1 (individual mice): cells incubated with 500 ug/ml at 4° C. for 2 hr before i.v. injection, lung, 20 days; for Number of colonies, Exp 1 (individual mice): 9 mice/group
Method: Experimental Metastatic Lung Colonization of Melanoma Cells. Male C57BL/6 mice 4 to 6 weeks old were obtained from Charles River, Inc. (Kingston, Md.) and quarantined for 2 weeks. Animals were fed normal rodent chow and unchlorinated spring water. B16-BL6 cells were grown to subconfluence, detached from plastic dishes by incubating in 2 mM EDTA, 0.14M NaCl and 10 mM sodium phosphatebuffer, pH 7.4, for 5-10 min, and suspended in a 1:1 mixture of Dulbecco's modified minimum essential medium and Ham's F12 medium. […] Treated or untreated cells (5×10^4 /0.1 ml) were injected intravenously to each mouse. Mice were killed 20 days later and autopsied. The numbers of pulmonary tumor nodules were counted after the lung was perfused via the trachea with 4% formalin in Dulbecco's phosphate buffered saline. Extrapulmonary tumor formation was assessed in each animal and recorded.

B16 melanoma heparanase [4] = experiment: HPLC assay for heparanase inhibition (14C-HS degradation, gel-permeation chromatography); assay type: biochemical, mouse; conditions: 1 mg/ml in incubation mixture, crude heparanase of 10^6 B16-BL6 cells, 37° C., 6 h
Method: A high-speed gel-permeation chromatography system was equipped with a 0.70×75 cm column of Fractogel TSK-HW55(S). Elution was performed with 0.2M NaCl at a flow rate of 1.0 ml/min at 55° C. Each 0.5-ml fraction corresponding to 30-sec elution was collected, mixed with 3 ml of Hydrofluor and its radioactivity determined. Panel A, ^14 C-HS was incubated with heat-inactivated crude heparanase (10^6 B16-BL6-melanoma cell equivalents) at 37° C. for 6 h, and analyzed. B, same incubation as A except that the enzyme was not heat-inactivated.
High-speed gel permeation chromatography was performed as described previously (Irimura et al., (1983a) Anal. Biochem., V 130, pp 461-468) using a Constametric III (LDC-Milton Roy, Riviera Beach, Fla.) with a single 0.7×75 cm stainless steel column packed with Fractogel TSK HW-55(S). Elution was accomplished with 0.2M sodium chloride at flow rates of 1.0 ml/min or 0.75 ml/min. Absorption at 210 nm was monitored for the analogs of chemically modified heparin. For the qualitative examination of radiolabeled HS-degradation products, each fraction corresponding to 30-sec elution was collected into plastic scintillation vials, and radioactivity in each vial was determined after the fraction was mixed with 3.0 ml of Hydrofluor (National Diagnostics, Somerville, N.J.).
Cell extracts were prepared in 5 mM Tris-HCl buffer, pH 7.4, containing 0.25M sucrose, 50 μM calcium chloride, 10 μM phenylmethylsulfonylfluoride, and 0.2% Nonidet P-40 (Irimura et al., (1983). The melanoma extracts were stored frozen at -80° C. and used as crude heparanase.
High-Performance Liquid Chromatography [HPLC] Assay for Heparanase. Fifty microliters of melanoma extract (equivalent to 10^6 cells) were mixed with chemically modified heparin (5 mg/ml in water), 50 μl of 4×heparanase assay buffer (0.4 sodium phosphate buffer, pH 5.8, containing 0.4% Triton X-100, 0.6M sodium chloride, and 0.4% sodium azide) and about 3000 cpm of ^14 C-HS.

blood coagulation = experiment: Anticoagulation activity by USP standard assay; conditions: % of the anticoagulation activity of unmodified heparin
B16 melanoma cells = experiment: Blood-borne lung colonization, mice treated i.v. with heparins; assay type: in vivo, C57BL/6 mice; conditions: for Number of lung colonies, Median: 0.1 ml of 5.0 mg/ml i.v. 4 hr before and 20 hr after inoculation of 5×10^4 cells, 20 days; for establishment of metastatic tumor colonies in the lungs, in words: i.v. treatment of mice
Method: Chemically modified heparins were tested in mice as inhibitors of blood-borne lung colonization by melanoma cells. Male C57BL/6 mice 4 to 6 weeks old were obtained from Charles River, Inc. and quarantined for 2 weeks. The mice were intravenously inoculated with 5×10^4 B16-BL melanoma cells. Treated mice were intravenously injected with 0.1 ml each of heparin or chemically modified heparin (5.0 mg/ml) 4 hr before and 20 hr after inoculation with the melanoma cells. The chemically modified heparins used were: N-acetylated N-desulfated heparin; carboxyl-reduced heparin; and N-resulfated N, O-desulfated heparin.
Mice were killed 20 days after tumor inoculation and autopsied. The numbers of pulmonary tumor colonies were counted after the lungs were perfused via the trachea with 4% formalin in Dulbecco's phosphate-buffered saline.

B16-BL6 melanoma cells [5] = experiment: 3H-thymidine incorporation, growth of melanoma cells in tissue culture; assay type: cell-based, mouse; conditions: with or without 5% fetal bovine serum; 48 h exposure
Method: FIG. 7: Effects of chemically modified heparins on the incorporation of ^3 H-thymidine to B16-BL6 melanoma cells grown in tissue culture.
In order to assess a possibility that the effects of modified heparins on the blood-borne lung colonization of B16 melanoma cells were due to their direct toxic effects on the cells, the growth of B16 melanoma in the presence or absence of modified heparins were examined in vitro. B16-BL6 melanoma cells were seeded in multiwell tissue culture plates at a density 10,000 per each 1 cm well in the presence or absence of 5% fetal bovine serum. Six hours later, modified heparins were added, then 24 hours later, ^3 H thymidine was added to a final concentration 5 uCi/ml. After further 24 hour incubation, trichloroacetic acid-insoluble materials were collected, dissolved in 1M sodium hydroxide solution, neutralized and counted on a liquid scintillation counter.

[6] = tested on: rat mammary adenocarcinoma MTF7; experiment: Experimental metastasis of rat mammary adenocarcinoma, rats treated i.v.; assay type: in vivo, Fischer (F344/CDL) rats; conditions: for Lung Metastases per rat, Median No.: 0.1 ml of 10 mg/ml i.v. 8 h before and 16 h after 5×10^4 MTF7 cells, 30 days; for effectiveness against lung tumor colonies of mammary carcinoma, in words: i.v. treatment of rats
Method: Inbred 8-week-old female Fischer (F344/CDL) rats were supplied by the Charles River Breeding Laboratories (Kingston, N.Y.). Animals were quarantined for 7 days before use and feed standard rodent chow and unchlorinated spring water ad libitum. They were maintained under guidelines set forth by the University of Texas M. D. Anderson Cancer Center and the Institute of Laboratory Animal Resources, National Research Council. […] The cells grown at 37° C. in an atmosphere of 5% CO2 in humidified air in an 1:1 mixture of Dulbecco's modified minimum essential media and Ham's F12 media containing 10% fetal bovine serum and no antibiotics in 100 mm-diam. tissue culture plates.
The cells used in this study were in exponential growth phase and were from passages 14 to 20 in vitro and were free of mycoplasma and viral contamination.
Rats (9 per group) were injected i.v. (lateral tail vein) with 0.1 ml of 10 mg/ml solution of heparin, N-acetylated-N-desulfated heparin, or carboxyl-reduced heparin. Eight hours later, the same rats were injected i.v. with 5×10^4 MTF7 mammary carcinoma cells suspended in 0.2 ml serum-free media. Sixteen hours after injections of carcinoma cells, rats were treated with unmodified or chemically modified heparin at the same dose as the previous treatment 8 hours prior to the injection of carcinoma cells.
Rats were killed 30 days after the initial injection of carcinoma cells and examined for the number of lung tumor colonies, that should represent the degree of metastatic spread of mammary carcinoma cells.

B16-BL6 cells = experiment: Adhesion of melanoma cells to endothelial cell monolayers; assay type: cell-based, mouse; conditions: B16 cells pretreated 2 hrs, continuous presence of compounds, 37° C.
Method: FIG. 8: Adhesion of B16 melanoma cells to bovine aortic endothelial cell monolayers. FIG. 8(a) B16 melanoma cells were pretreated with modified heparins at room temperature for 2 hrs, and the adhesion assays were performed in the continuous presence of these compounds at 37° C. FIG. 8(b) Endothelial cells were pretreated with modified heparins at 37° C. for 2 hrs, then adhesion assays were performed. (See Nicolson and Custead, (1985) Cancer Res. 45:331-336, for the methods
One of the most critical steps in the tumor cell-microvascular endothelium interaction during metastatic lung colonization of melanoma cells is the adhesive interaction of melanoma cells with endothelial cells. The effects of modified heparins on the adhesion of B16 melanoma to the cell monolayer and to the extracellular matrix of lung capillary endothelial cells were studied in vitro. The endothelial cells were grown in tissue culture and the extracellular matrices were isolated as described in Example 8.

B16-F10 melanoma cells = experiment: Invasion of organ-cultured lung tissues by melanoma cells; assay type: cell-based; conditions: organ-cultured minced mouse lung
Excerpt: FIG. 10: Effects of modified heparins on the B16-F10 melanoma cell-invasionof isolated mouse lung tissues in vitro. The experimental conditions were the same as the adhesion experiments. The invaded cells were counted on 4 μm sections under a light microscope. (See Nicolson et al., (1985) Invasion Metastasis, 5:144-158, for detailed methods.)
The effects of these glycosaminoglycan derivates on organ-specific adhesion and invasion of B16 melanoma cells were studied by using primary organ culture techniques in vitro. Minced lung tissues (0.5-1.0 cubic mm) from C57BL/6 mice were placed in glass vials and incubated in HEPES-buffered Dulbecco's modified minimum essential media containing 10% fetal bovine serum and 50 ug/ml gentamycin under continuous gyration at 66 rpm. After the medium was changed to a fresh medium without gentamycin, B16-F10 melanoma cells were added at a final concentration of 100,000/ml with or without various modified heparins. After various incubation times, the tissues were fixed in buffered formalin and processed for light microscopy. The adhesion and invasion of the tumor cells were examined on […] sections stained with hematoxylin and eosin.

melanoma heparanase = conditions: cited from earlier work

## N-acetylated N- and O-desulfated heparin
B16 melanoma heparanase [1]
  heparanase inhibitory activity (solid-phase assay, release of 3H-HS fragments): did not, however, restore the inhibitory activity

## N-desulfated N-resulfated heparin [reference compound]
[2]
  anti-proliferative (growth inhibitory) activity: retained full growth inhibitory properties

## N-resulfated N- and O-desulfated heparin
B16-BL6 melanoma
  degradation of sulfated molecules of endothelial matrix by melanoma cells: effectively blocked the degradation
B16-BL6 melanoma cells [3]
  Number of colonies (median), Exp 2: 8
B16 melanoma heparanase [1]
  heparanase inhibitory activity (solid-phase assay, release of 3H-HS fragments): partial restoration of activity
B16 melanoma heparanase [4]
  inhibition of degradation of HS by heparanase (HPLC assay): partially restored
Blood coagulation
  anticoagulation activity relative to unmodified heparin: less than 1%
B16 melanoma cells
  Number of lung colonies, Median: 36

## N- and O-desulfated heparin
B16 melanoma heparanase [1]
  heparanase inhibitory activity (solid-phase assay, release of 3H-HS fragments): failed to how any inhibitory activity
B16 melanoma heparanase [4]
  inhibition of degradation of HS by heparanase (HPLC assay): failed to inhibit degradation

## N-acetylated N-desulfated heparin
B16-BL6 melanoma cells [3]
  Number of colonies (median), Exp 1: 43
  Number of colonies (median), Exp 2: 5
  Number of colonies, Exp 1 (individual mice): 199
B16 melanoma heparanase [1]
  heparanase inhibitory activity (solid-phase assay, release of 3H-HS fragments): partially restored
Blood coagulation
  anticoagulation activity relative to unmodified heparin: less than 1%
B16-BL6 melanoma cells [5]
  incorporation of 3H-thymidine to B16 cells: no significant effects
[2]
  anti-proliferative (growth inhibitory) activity: retained full growth inhibitory properties
[6]
  Lung Metastases per rat, Median No.: 29
  effectiveness against lung tumor colonies of mammary carcinoma, in words: also effective
B16 melanoma cells
  Number of lung colonies, Median: 60

## Heparin [reference compound]
B16-BL6 melanoma
  degradation of sulfated molecules of endothelial matrix by melanoma cells: inhibited the degradation
B16-BL6 melanoma; in the absence of B16 melanoma cells
  spontaneous (non-enzymatic) release of 35S labeled macromolecules: apparently induced spontaneous release; also recorded: induced non-enzymatic release
B16-BL6 melanoma cells [3]; 20 days after injection of preincubated cells
  number of visible melanoma colonies in lung, in words: greater
B16-BL6 melanoma cells [3]
  Number of colonies (median), Exp 1: 16
  Number of colonies (median), Exp 2: 0
  Number of colonies, Exp 1 (individual mice): 174
B16-BL6 cells
  time course of adhesion to endothelial cell monolayer, melanoma cells pretreated: None of these compounds, including intact heparin, significantly altered
B16 melanoma heparanase [1]
  heparanase inhibitory activity (solid-phase assay, release of 3H-HS fragments): consistent with those of the HPLC assay
B16 melanoma heparanase [4]
  inhibition of degradation of HS by heparanase (HPLC assay): no degradation was observed
B16-BL6 melanoma cells [5]
  incorporation of 3H-thymidine to B16 cells: no significant effects
B16-F10 melanoma cells
  invasion of B16 melanoma cells to lung tissues: inhibited invasion
Melanoma heparanase
  inhibition of HS degradation by B16 cell extracts: inhibited HS degradation
[6]
  Lung Metastases per rat, Median No.: 9
  effectiveness against lung tumor colonies of mammary carcinoma, in words: most effective
B16 melanoma cells
  Number of lung colonies, Median: 30
  establishment of metastatic tumor colonies in the lungs, in words: inhibited formation of lung metastases

## completely N-desulfated heparin
B16 melanoma heparanase [1]
  heparanase inhibitory activity (solid-phase assay, release of 3H-HS fragments): failed to how any inhibitory activity
B16 melanoma heparanase [4]
  inhibition of degradation of HS by heparanase (HPLC assay): failed to inhibit degradation
[2]
  anti-proliferative (growth inhibitory) activity: lost their anti-proliferative activity

## carboxy-reduced heparin
B16-BL6 melanoma
  degradation of sulfated molecules of endothelial matrix by melanoma cells: effectively blocked the degradation
B16-BL6 melanoma cells [3]
  Number of colonies (median), Exp 1: 29
  Number of colonies (median), Exp 2: 51
  Number of colonies, Exp 1 (individual mice): 53
B16 melanoma heparanase [1]
  heparanase inhibitory activity (solid-phase assay, release of 3H-HS fragments): weaker inhibitory activity than heparin
Blood coagulation
  anticoagulation activity relative to unmodified heparin: less than 1%
B16-BL6 melanoma cells [5]
  incorporation of 3H-thymidine to B16 cells: no significant effects
[6]
  Lung Metastases per rat, Median No.: 25
  effectiveness against lung tumor colonies of mammary carcinoma, in words: also effective
B16 melanoma cells
  Number of lung colonies, Median: 6
  establishment of metastatic tumor colonies in the lungs, in words: most effective
